Publication PMC10747822 (Pharmaceutics, 2023)
Read-outs that look alike come from different tables or passages of the source. Where a SMILES comes first, the peptide text is derived from it. [ ]: non-standard residue; d: D form. The star is where a group is joined. NH(4-amidinobenzyl) = N=C(N)c1ccc(CN*)cc1

How the values were obtained:
[1] = Bench-top stability in mouse plasma; format: in vitro ADME; conditions: mouse plasma anti-coagulated with Li-heparin, minimally diluted, room temperature
Experimental: To investigate peptide stability, minimally diluted plasma or blood samples were generated through the addition of 10 µL of a spiking solution (50,000 ng/mL) to 490 µL of the pertinent biological matrix, resulting in a sample concentration of 1000 ng/mL. Samples (withdrawal of duplicates of 20 µL) were measured immediately after preparation and again after 1 and 2 h. Stability was evaluated via the comparison of peak area ratios of analyte and IS.
To determine which biological matrix is best suited for pharmacokinetic experiments in mice, we investigated the bench-top stability of Ac-[D-Leu]LLLRVK-amba in plasma and fresh whole blood at room temperature over a 2 h period (Figure 3). In plasma, anti-coagulated with Li-heparin, Ac-[D-Leu]LLLRVK-amba was very rapidly degraded.

[2] = Blood pharmacokinetics in mice after intravenous and intraperitoneal injection; format: in vivo, C57Bl/6 female mice; conditions: for half-life: C57Bl/6, mouse, whole blood sampled at 20, 40, 60, 120 min, non-compartmental
Experimental: Animal studies were approved by the regulatory authorities (Regierungspräsidium Karlsruhe of the state of Baden-Württemberg/Germany, 35-9185.81/G-145/21) and fully complied with European and national regulations for the care and use of laboratory animals (2010/63/EU). Eight- to ten-week-old C57Bl/6 female mice (Janvier) were used for the study.
The animals were administered 4 mg/kg Ac-[D-Leu]LLLRVK-amba in 0.100 mL 0.9% sodium chloride (NaCl) solution per mouse. Four animals received the peptide as intraperitoneal injection, and three animals as intravenous bolus injection into the tail vein. Blood samples were taken 20, 40, 60, and 120 min after administration by collecting a drop of blood from puncture of the facial vein into EDTA tubes (KABE Labortechnik, Nümbrecht, Germany). Whole-blood samples were immediately snap-frozen in liquid nitrogen and stored at −80 °C until analysis.
Blood samples for calibration and QC purposes were generated through the addition of 25 µL of the pertinent spike solution to 20 µL of blank blood and the subsequent addition of 25 µL of IS solution. Calibration samples were produced at 10, 30, 100, 300, 1000, 3000, and 10,000 ng/mL, and QC samples were produced at concentrations of 10, 30, 3750, and 7500 ng/mL. For study sample processing, 20 µL of each sample was added to 25 µL of IS solution, and 25 µL of ACN/H2O 1/1 + 0.1% FA was added for volume compensation to ensure that sample preparation matches that of study blood samples. For stability reasons, each sample was immediately depleted from proteins by adding 150 µL ACN including 0.1% FA. Samples were processed individually and kept frozen until processing. Subsequently, samples were centrifuged at 13,200× g for 5 min. From the extracts, 10 µL was transferred to 400 µL of ACN/H2O 1/19 + 0.1% FA in wells of a 96-well collection plate (Waters, Milford, MA, USA).
Calibration curves were determined with 1/x^2 weighted linear regression using peak area ratios of the analyte to IS. This calculation was performed using the software TargetLynx V4.2 (Waters, Milford, MA, USA). Blood pharmacokinetics were determined with the software Kinetica (v 5.0; Thermo Fisher Scientific, Waltham, MA, USA). Pharmacokinetic analyses were performed using standard non-compartmental methods. The elimination rate (λ) was calculated by linear regression of ln-transformed concentrations from the terminal concentration decline, and the half-life was calculated as ln 2 divided by λ. Standard calculations were performed using Microsoft Office Excel 2010 (Mountain View, CA, USA).

half-life at 1000 ng/mL ([1]; CD-1, 1 µg/mL (1000 ng/mL), sampled at 0, 1 and 2 h, duplicates of 20 µL, UPLC-MS/MS peak area ratio analyte/IS, read-out: calculated half-life (t1/2) in plasma (converted)): 28.8 min
calculated half-life (t1/2) in plasma ([1]; 1 µg/mL, 0, 1 and 2 h, duplicates, UPLC-MS/MS, same value given in min): 29 min
level at 2 h ([2]; female, C57Bl/6, ip, mouse #1, 2 h after intraperitoneal administration of 4 mg/kg, whole blood, UPLC-MS/MS, single sample, read-out: calculated blood concentration): 15.8 ng/mL
half-life ([2]; female, ip, mice, 4 mg/kg intraperitoneal, n = 4, UPLC-MS/MS, read-out: half-life after intraperitoneal administration): 15.9 ± 1 min
half-life ([2]; female, mice, 4 mg/kg intravenous bolus into tail vein, n = 3, UPLC-MS/MS, read-out: half-life after intravenous injection): 21 ± 1.6 min
intraperitoneal absorption ([2]; mice, 4 mg/kg intraperitoneal vs intravenous, judged by partial profiles, bioavailability not calculable): very efficient
Structure (SMILES): CC(=O)N[C@H](CC(C)C)C(=O)N[C@@H](CC(C)C)C(=O)N[C@@H](CC(C)C)C(=O)N[C@@H](CC(C)C)C(=O)N[C@@H](CCCNC(=N)N)C(=O)N[C@H](C(=O)N[C@@H](CCCCN)C(=O)NCc1ccc(C(=N)N)cc1)C(C)C [Ac-[D-Leu]LLLRVK-amba] (Ac-[dL]LLLRVK-{NH(4-amidinobenzyl)})
